Measured values: ChEMBL document CHEMBL1921670, “Discovery and optimization of indole and 7-azaindoles as Rho kinase (ROCK) inhibitors (part-II)” (Bioorg Med Chem Lett, 2011)

Tests used:
[1] = biological target: Rho-associated protein kinase 2 (Homo sapiens, UniProt O75116); test: Inhibition of ROCK2
[2] = biological target: Rho-associated protein kinase 1 (Homo sapiens, UniProt Q13464); test: Inhibition of ROCK1
[3] = Half life in human liver microsomes; format: ADME, Microsome
CYP1A2 = biological target: T1, CYP1A2 (Homo sapiens, UniProt P05177); test: Inhibition of CYP1A2 at 10 uM; format: ADME
T1 sequence (P05177 whole entry): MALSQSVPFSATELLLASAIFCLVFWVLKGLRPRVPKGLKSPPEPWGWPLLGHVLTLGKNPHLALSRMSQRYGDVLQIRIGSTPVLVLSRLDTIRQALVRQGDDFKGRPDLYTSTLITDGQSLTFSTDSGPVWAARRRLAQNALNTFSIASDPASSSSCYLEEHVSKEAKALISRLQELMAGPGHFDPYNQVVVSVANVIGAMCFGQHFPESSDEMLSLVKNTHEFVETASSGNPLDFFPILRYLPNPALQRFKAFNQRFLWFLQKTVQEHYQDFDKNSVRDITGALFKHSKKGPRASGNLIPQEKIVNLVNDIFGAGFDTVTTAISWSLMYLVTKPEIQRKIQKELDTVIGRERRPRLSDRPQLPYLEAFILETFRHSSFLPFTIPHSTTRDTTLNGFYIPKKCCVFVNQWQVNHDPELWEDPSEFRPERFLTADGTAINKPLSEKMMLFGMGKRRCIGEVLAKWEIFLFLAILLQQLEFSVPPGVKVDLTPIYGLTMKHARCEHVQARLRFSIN

CYP2C9 = CYP2C9 (Homo sapiens, UniProt P11712); test: Inhibition of CYP2C9 at 10 uM; format: ADME
Sequence of CYP2C9 (P11712 whole entry): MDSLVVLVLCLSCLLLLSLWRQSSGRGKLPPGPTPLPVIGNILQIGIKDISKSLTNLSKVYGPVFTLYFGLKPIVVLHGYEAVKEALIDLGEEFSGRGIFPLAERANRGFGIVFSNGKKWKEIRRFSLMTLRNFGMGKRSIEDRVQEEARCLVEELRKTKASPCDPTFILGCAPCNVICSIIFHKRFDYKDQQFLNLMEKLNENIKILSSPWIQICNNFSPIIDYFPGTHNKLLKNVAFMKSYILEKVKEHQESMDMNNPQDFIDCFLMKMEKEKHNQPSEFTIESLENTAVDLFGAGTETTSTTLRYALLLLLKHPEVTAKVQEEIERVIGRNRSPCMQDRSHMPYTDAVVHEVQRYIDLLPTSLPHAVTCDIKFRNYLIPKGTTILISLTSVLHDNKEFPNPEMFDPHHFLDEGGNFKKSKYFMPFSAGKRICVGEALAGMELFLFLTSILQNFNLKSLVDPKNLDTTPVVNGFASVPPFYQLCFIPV

CYP2D6 = CYP2D6 (Homo sapiens, UniProt P10635); test: Inhibition of CYP2D6 at 10 uM; format: ADME
Sequence of CYP2D6 (P10635 whole entry): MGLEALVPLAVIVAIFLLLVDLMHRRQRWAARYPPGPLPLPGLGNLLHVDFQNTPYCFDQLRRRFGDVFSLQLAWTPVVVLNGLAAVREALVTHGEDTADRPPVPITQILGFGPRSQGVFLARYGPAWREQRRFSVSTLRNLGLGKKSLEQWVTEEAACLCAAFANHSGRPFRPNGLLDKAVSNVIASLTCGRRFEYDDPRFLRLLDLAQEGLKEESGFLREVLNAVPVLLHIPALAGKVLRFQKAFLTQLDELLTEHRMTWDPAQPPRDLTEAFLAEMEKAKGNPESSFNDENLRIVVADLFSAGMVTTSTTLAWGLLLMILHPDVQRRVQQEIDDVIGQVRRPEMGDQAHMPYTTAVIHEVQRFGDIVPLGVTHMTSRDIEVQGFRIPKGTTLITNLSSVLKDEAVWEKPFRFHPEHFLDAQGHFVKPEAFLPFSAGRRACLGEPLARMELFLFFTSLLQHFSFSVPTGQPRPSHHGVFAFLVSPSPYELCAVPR

CYP3A4 = CYP3A4 (Homo sapiens, UniProt P08684); test: Inhibition of CYP3A4 at 10 uM; format: ADME
Sequence of CYP3A4 (P08684 whole entry): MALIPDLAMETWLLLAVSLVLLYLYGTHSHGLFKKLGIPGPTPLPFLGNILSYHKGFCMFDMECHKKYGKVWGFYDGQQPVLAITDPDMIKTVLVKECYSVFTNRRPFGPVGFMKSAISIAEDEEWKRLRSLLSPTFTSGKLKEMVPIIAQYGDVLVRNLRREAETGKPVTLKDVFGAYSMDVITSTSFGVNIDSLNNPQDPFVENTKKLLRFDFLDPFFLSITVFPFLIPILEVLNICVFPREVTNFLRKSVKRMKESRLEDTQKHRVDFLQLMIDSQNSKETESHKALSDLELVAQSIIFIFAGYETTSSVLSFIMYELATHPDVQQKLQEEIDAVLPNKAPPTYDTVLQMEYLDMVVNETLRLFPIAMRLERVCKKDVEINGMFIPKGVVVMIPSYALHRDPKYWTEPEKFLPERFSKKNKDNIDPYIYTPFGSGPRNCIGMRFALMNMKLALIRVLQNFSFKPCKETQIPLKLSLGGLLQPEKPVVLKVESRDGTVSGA

[4] = Inhibition of PKA
[5] = Inhibition of myosin light chain bisphosphorylation by cell-based assay
[6] = Clearance in rat at 1 mg/kg, iv or 2 mg/kg, po; format: ADME, organism-based; conditions: in vivo
[7] = Volume of distribution at steady state in rat at 1 mg/kg, iv or 2 mg/kg, po; format: ADME, organism-based; conditions: in vivo, read-out: Vdss
[8] = Half life in rat at 1 mg/kg, iv or 2 mg/kg, po; format: ADME, organism-based; conditions: in vivo
[9] = Oral bioavailability in rat at 2 mg/kg; format: ADME, organism-based; conditions: in vivo
[10] = AUC in rat at 1 mg/kg, iv; format: ADME, organism-based; design: dose 1 mg/kg, route intravenous; conditions: plasma

Sequence of Rho-associated protein kinase 2 (O75116 whole entry): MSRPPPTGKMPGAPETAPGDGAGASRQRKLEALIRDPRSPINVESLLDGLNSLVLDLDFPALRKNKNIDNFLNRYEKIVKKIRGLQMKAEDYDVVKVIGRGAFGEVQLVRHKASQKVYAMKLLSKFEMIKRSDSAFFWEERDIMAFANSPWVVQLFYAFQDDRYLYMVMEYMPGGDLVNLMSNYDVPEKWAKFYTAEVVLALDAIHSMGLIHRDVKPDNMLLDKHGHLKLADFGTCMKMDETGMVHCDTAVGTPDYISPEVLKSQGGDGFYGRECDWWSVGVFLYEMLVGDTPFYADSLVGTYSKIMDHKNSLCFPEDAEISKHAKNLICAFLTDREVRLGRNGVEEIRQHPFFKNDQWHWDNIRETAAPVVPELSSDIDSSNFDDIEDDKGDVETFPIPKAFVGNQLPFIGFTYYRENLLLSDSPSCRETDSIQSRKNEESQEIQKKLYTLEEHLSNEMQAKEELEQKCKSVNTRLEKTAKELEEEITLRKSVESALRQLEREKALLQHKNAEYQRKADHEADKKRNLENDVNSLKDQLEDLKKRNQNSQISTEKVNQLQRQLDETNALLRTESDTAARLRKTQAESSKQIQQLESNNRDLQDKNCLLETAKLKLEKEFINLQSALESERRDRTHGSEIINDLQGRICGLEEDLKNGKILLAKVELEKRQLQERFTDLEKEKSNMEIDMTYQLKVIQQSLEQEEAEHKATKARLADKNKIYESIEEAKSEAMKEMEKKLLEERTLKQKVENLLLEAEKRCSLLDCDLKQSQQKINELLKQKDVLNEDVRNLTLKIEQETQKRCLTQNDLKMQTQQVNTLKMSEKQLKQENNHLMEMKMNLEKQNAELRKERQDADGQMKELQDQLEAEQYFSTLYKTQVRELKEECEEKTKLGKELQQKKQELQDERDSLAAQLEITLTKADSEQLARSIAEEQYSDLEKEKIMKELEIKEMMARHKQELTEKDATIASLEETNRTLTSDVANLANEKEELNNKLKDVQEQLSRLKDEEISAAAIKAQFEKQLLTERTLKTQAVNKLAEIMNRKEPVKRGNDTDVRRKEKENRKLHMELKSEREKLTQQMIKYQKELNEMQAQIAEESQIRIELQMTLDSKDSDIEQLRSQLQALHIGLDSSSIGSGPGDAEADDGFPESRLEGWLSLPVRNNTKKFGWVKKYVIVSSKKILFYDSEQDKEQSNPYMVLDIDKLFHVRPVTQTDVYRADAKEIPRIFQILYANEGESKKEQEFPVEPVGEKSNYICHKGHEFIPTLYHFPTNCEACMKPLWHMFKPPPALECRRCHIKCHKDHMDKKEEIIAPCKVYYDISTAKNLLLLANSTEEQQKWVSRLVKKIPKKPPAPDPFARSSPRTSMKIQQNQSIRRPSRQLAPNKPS
Sequence of Rho-associated protein kinase 1 (Q13464 whole entry): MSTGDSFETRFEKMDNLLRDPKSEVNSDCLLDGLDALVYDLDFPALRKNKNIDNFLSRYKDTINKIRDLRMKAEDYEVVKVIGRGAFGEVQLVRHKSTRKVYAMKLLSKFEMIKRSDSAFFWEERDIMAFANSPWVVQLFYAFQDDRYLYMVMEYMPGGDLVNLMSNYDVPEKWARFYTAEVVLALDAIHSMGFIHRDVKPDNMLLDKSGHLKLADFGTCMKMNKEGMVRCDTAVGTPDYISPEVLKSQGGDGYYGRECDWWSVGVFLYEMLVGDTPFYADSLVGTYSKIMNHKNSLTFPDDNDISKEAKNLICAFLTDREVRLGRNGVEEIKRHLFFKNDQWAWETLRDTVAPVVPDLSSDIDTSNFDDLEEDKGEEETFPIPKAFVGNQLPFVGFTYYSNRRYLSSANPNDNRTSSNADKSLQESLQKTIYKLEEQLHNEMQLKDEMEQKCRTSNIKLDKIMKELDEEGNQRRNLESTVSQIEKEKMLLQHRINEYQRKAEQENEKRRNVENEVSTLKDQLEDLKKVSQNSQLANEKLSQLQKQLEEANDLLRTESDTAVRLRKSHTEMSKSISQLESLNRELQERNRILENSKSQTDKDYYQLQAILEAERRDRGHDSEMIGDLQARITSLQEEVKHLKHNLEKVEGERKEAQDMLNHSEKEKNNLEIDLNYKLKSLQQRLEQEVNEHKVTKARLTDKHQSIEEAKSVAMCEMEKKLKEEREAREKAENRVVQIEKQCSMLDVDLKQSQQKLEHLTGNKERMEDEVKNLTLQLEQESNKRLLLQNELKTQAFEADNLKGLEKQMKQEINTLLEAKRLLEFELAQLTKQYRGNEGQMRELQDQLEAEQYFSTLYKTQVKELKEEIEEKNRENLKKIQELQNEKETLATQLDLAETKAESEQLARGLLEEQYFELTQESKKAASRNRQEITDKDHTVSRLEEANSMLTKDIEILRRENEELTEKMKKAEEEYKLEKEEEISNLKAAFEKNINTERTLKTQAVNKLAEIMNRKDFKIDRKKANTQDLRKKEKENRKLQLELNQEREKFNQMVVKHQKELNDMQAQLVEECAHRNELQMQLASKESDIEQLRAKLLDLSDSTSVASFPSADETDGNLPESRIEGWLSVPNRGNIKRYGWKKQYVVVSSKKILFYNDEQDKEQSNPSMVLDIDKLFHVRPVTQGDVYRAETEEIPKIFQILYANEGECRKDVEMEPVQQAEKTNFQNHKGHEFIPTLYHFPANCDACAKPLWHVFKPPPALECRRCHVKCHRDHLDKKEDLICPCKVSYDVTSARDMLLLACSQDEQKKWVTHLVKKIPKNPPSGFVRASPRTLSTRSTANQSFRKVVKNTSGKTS

Row | SMILES | IC50 [1] [nM] | IC50 [2] [nM] | half-life [3] [min] | inhibition at 10 µM (CYP1A2) [%] | inhibition at 10 µM (CYP2C9) [%] | inhibition at 10 µM (CYP2D6) [%] | inhibition at 10 µM (CYP3A4) [%] | IC50 [4] [nM] | IC50 [5] [nM] | clearance [6] [mL/min/kg] | Vd [7] [L/kg] | half-life [8] [min] | bioavailability [9] [%] | AUC [10] [µM·h]
1 | COc1cccc(CNC(=O)c2cn(-c3ccccc3)c3cc(-c4cn[nH]c4)ccc23)c1 | 5 | 21 | 10 | 36 | 96 | 76 | 93 | – | – | – | – | – | – | –
2 | COc1cccc(CNC(=O)c2[nH]c3cc(-c4cn[nH]c4)ccc3c2CN2CCN(C)CC2)c1 | < 1 | 6 | 1 | 62 | 75 | 86 | 75 | 1300 | 40 | – | – | – | – | –
3 | COc1cccc(CN(C)C(=O)c2cc3ccc(-c4cn[nH]c4)cc3[nH]2)c1 | 3 | 37 | 46 | -7 | 27 | 9 | 2 | 2800 | 70 | – | – | – | – | –
4 | COc1cccc(CN(C)C(=O)c2cc3ccc(-c4cn[nH]c4)nc3[nH]2)c1 | 4 | 27 | 24 | 32 | 83 | 52 | 27 | 570 | 25 | – | – | – | – | –
5 | COc1cccc(CN(CCCN(C)C)C(=O)c2cc3ccc(-c4cn[nH]c4)cc3[nH]2)c1 | 10 | 46 | – | – | – | – | – | 1600 | – | – | – | – | – | –
6 | COc1cccc(CN(CCN(C)C)C(=O)c2cn(C)c3cc(-c4cn[nH]c4)ccc23)c1 | 1 | 9 | 8 | 3 | 62 | 52 | 36 | 2200 | 34 | – | – | – | – | –
7 | CCN(Cc1cccc(OC)c1)C(=O)c1c[nH]c2nc(-c3cn[nH]c3)ccc12 | 19 | 76 | – | – | – | – | – | 5000 | – | – | – | – | – | –
8 | COc1cccc(CN(C)C(=O)c2cc3ccc(-c4cn[nH]c4)cc3n2C)c1 | 200 | 1100 | – | – | – | – | – | > 20000 | – | – | – | – | – | –
9 | COc1cccc(CN(CCN2CCCC2)C(=O)c2cc3ccc(-c4cn[nH]c4)nc3[nH]2)c1 | 18 | 121 | 21 | 12 | 26 | 52 | 43 | > 20000 | – | – | – | – | – | –
10 | COc1cccc(CNC(=O)c2cn(C)c3cc(-c4cn[nH]c4)ccc23)c1 | < 1 | < 1 | 9 | 23 | 93 | 53 | 87 | 87 | 4 | – | – | – | – | –
11 | COc1cccc(CNC(=O)c2[nH]c3nc(-c4cn[nH]c4)ccc3c2CN2CCOCC2)c1 | 16 | 91 | 4 | 7 | 9 | 28 | 46 | 6100 | – | – | – | – | – | –
12 | COc1cccc(CN(C)C(=O)c2c[nH]c3cc(-c4cn[nH]c4)ccc23)c1 | 2 | 19 | 13 | 70 | 94 | 50 | 38 | 4300 | – | – | – | – | – | –
13 | COc1cccc(CNC(=O)c2cc3ccc(-c4cn[nH]c4)nc3n2CC2CC2)c1 | 150 | 280 | – | – | – | – | – | 5000 | – | – | – | – | – | –
14 | COc1cccc(CNC(=O)c2[nH]c3cc(-c4cn[nH]c4)ccc3c2CN2CCOCC2)c1 | 3 | 40 | 8 | 46 | 86 | 70 | 86 | 18000 | 130 | 32 | 2 | 84 | 0 | 1.2
15 | COc1cccc(CNC(=O)c2cn(CCCO)c3cc(-c4cn[nH]c4)ccc23)c1 | 1 | 3 | 21 | 71 | 87 | 32 | 63 | 900 | – | – | – | – | – | –
16 | COc1cccc(CN(CC[N+]2(C)CCCC2)C(=O)c2cc3ccc(-c4cn[nH]c4)nc3n2C)c1 | 1900 | 6600 | – | – | – | – | – | 3700 | – | – | – | – | – | –
17 | COc1cccc(CNC(=O)c2[nH]c3cc(-c4cn[nH]c4)ccc3c2CN(C)C)c1 | 9 | 34 | 68 | 18 | 27 | 48 | 19 | 1500 | – | – | – | – | – | –

Row | SMILES | IC50 [1] [nM] | IC50 [2] [nM] | half-life [3] [min] | inhibition at 10 µM (CYP1A2) [%] | inhibition at 10 µM (CYP2C9) [%] | inhibition at 10 µM (CYP2D6) [%] | inhibition at 10 µM (CYP3A4) [%] | IC50 [4] [nM] | IC50 [5] [nM] | clearance [6] [mL/min/kg] | Vd [7] [L/kg] | half-life [8] [min] | bioavailability [9] [%] | AUC [10] [µM·h]
18 | COc1cccc(CNC(=O)c2cn(CCN3CCCC3)c3nc(-c4cn[nH]c4)ccc23)c1 | 8 | 89 | 21 | 9 | 51 | 69 | 44 | > 20000 | – | 114 | 10 | 90 | 0 | 0.3
19 | COc1cccc(CN(CCN2CCCC2)C(=O)c2cc3ccc(-c4cn[nH]c4)nc3n2C)c1 | 220 | 1000 | – | – | – | – | – | 2200 | – | – | – | – | – | –
20 | COc1cccc(CNC(=O)c2cc3ccc(-c4cn[nH]c4)nc3n2Cc2cccc(OC)c2)c1 | 4400 | > 20000 | – | – | – | – | – | – | – | – | – | – | – | –
21 | COc1cccc(CN(C)C(=O)c2cn(CCN(C)C)c3cc(-c4cn[nH]c4)ccc23)c1 | 9 | 110 | – | – | – | – | – | > 20000 | – | – | – | – | – | –
22 | COc1cccc(CNC(=O)c2[nH]c3cc(-c4cn[nH]c4)ccc3c2CN2CCCNCC2)c1 | < 1 | 8 | 50 | 41 | 53 | 81 | 51 | 385 | – | – | – | – | – | –
23 | COc1cccc(CNC(=O)c2cc3ccc(-c4cn[nH]c4)cc3n2CCN(C)C)c1 | 310 | 710 | – | – | – | – | – | > 20000 | – | – | – | – | – | –
24 | COc1cccc(CNC(=O)c2[nH]c3nc(-c4cn[nH]c4)ccc3c2CN2CCN(C)CC2)c1 | 8 | 39 | 1 | -15 | -26 | 60 | 34 | 911 | – | – | – | – | – | –
25 | COc1cccc(CN(CCCN2CCN(C)CC2)C(=O)c2c[nH]c3nc(-c4cn[nH]c4)ccc23)c1 | 62 | 260 | – | – | – | – | – | 3700 | – | – | – | – | – | –
26 | COc1cccc(CN(C)C(=O)c2cn(C)c3cc(-c4cn[nH]c4)ccc23)c1 | < 1 | 3 | 4 | 23 | 93 | 58 | 70 | 680 | 17 | – | – | – | – | –
27 | COc1cccc(CN(CCCN(C)C)C(=O)c2cn(C)c3cc(-c4cn[nH]c4)ccc23)c1 | 1 | 13 | 14 | 4 | 28 | 31 | 31 | 2810 | 53 | – | – | – | – | –
28 | COc1cccc(CN(CCN2CCCC2)C(=O)c2cc3ccc(-c4cn[nH]c4)cc3[nH]2)c1 | 11 | 62 | 49 | -2 | 65 | 78 | 59 | 1640 | 206 | – | – | – | – | –
29 | COc1cccc(CNC(=O)c2cn(C)c3nc(-c4cn[nH]c4)ccc23)c1 | < 1 | < 1 | 13 | -2 | 77 | 23 | 68 | 720 | – | – | – | – | – | –
30 | COc1cccc(CN(C)C(=O)c2cc3ccc(-c4cn[nH]c4)cc3n2CCN(C)C)c1 | 2300 | 6900 | – | – | – | – | – | > 20000 | – | – | – | – | – | –
31 | COc1cccc(CN(C(=O)c2c[nH]c3nc(-c4cn[nH]c4)ccc23)C2CC2)c1 | 6 | 30 | 9 | -5 | 91 | 25 | 56 | > 20000 | – | – | – | – | – | –
32 | COc1cccc(CNC(=O)c2cc3ccc(-c4cn[nH]c4)cc3n2CCCO)c1 | 24 | 88 | – | – | – | – | – | 1800 | – | – | – | – | – | –
33 | COc1cccc(CN(CCN(C)C)C(=O)c2cn(CCN3CCCC3)c3cc(-c4cn[nH]c4)ccc23)c1 | 2800 | 8900 | – | – | – | – | – | > 20000 | – | – | – | – | – | –
34 | COc1cccc(CNC(=O)c2c[nH]c3nc(-c4cn[nH]c4)ccc23)c1 | – | – | – | – | – | – | – | 8000 | – | – | – | – | – | –
